Measurements reported in PubChem BioAssay (NCI).
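A five-concentration, 48-hour dose response in 96-well plates underlies each endpoint, interpolated linearly between surrounding concentrations. Here, GI50 denotes the concentration required for 50% inhibition of growth. TGI is the concentration that stops growth completely.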

Legend:
Experiment in all cases: DTP human tumour cell line panel, 48 h
NCI-H460 lung = tested on: NCI-H460 lung
RXF 393 renal = tested on: RXF 393 renal
K-562 leukemia = tested on: K-562 leukemia
A549 NSCLC = tested on: A549 NSCLC
DMS 114 small cell lung = tested on: DMS 114 small cell lung
DLD-1 colon = tested on: DLD-1 colon
U251 CNS = tested on: U251 CNS

## CS/C(c1ccccc1)=[N+](\[O-])Cc1ccccc1
NCI-H460 lung
  TGI: > 100 µM
RXF 393 renal
  TGI: > 100 µM
K-562 leukemia
  TGI: > 100 µM
A549 NSCLC
  TGI: > 100 µM
DMS 114 small cell lung
  TGI: > 100 µM
DLD-1 colon
  TGI: > 100 µM
U251 CNS
  TGI: > 100 µM

## CCOC(=O)N1C(c2ccccc2)C=CC(c2ccccc2)N1C(=O)OCC (configuration not stated)
NCI-H460 lung
  TGI: > 100 µM
RXF 393 renal
  TGI: > 100 µM
K-562 leukemia
  TGI: > 100 µM
A549 NSCLC
  TGI: > 100 µM
DMS 114 small cell lung
  TGI: > 100 µM
DLD-1 colon
  TGI: > 100 µM
U251 CNS
  TGI: > 100 µM

## O=C(O)c1ccccc1N=Nc1ccc2oc(=O)c(C(=O)Nc3ccccc3)cc2c1
NCI-H460 lung
  TGI: > 100 µM
RXF 393 renal
  TGI: > 100 µM
K-562 leukemia
  TGI: > 100 µM
A549 NSCLC
  TGI: > 100 µM
DMS 114 small cell lung
  TGI: 76.9 µM
DLD-1 colon
  TGI: > 100 µM
U251 CNS
  TGI: > 100 µM

## N#Cc1ccc(Oc2cccc(Oc3ccccc3)c2)cc1C#N
NCI-H460 lung
  TGI: > 100 µM
RXF 393 renal
  TGI: > 100 µM
K-562 leukemia
  TGI: > 100 µM
A549 NSCLC
  TGI: > 100 µM
DMS 114 small cell lung
  TGI: > 100 µM
DLD-1 colon
  GI50: > 100 µM
  TGI: > 100 µM
U251 CNS
  TGI: > 100 µM

## O=C(N/C(=C\c1ccc(/C=C(\NC(=O)c2ccccc2)c2nc3ccccc3s2)cc1)c1nc2ccccc2s1)c1ccccc1
NCI-H460 lung
  TGI: 14.6 µM
RXF 393 renal
  TGI: 32.6 µM
K-562 leukemia
  TGI: > 100 µM
A549 NSCLC
  TGI: 35.2 µM
DMS 114 small cell lung
  TGI: 25.9 µM
DLD-1 colon
  TGI: 12 µM
U251 CNS
  TGI: 6.2 µM

## Cn1c(=O)c(C(=O)NC(=O)NCCCCCOC(=O)CCCCCCCCCCC(=O)OCCCCCNC(=O)NC(=O)c2cn(Cc3ccccc3)c(=O)n(C)c2=O)cn(Cc2ccccc2)c1=O
NCI-H460 lung
  TGI: > 100 µM
RXF 393 renal
  TGI: > 100 µM
K-562 leukemia
  TGI: > 100 µM
A549 NSCLC
  TGI: > 100 µM
DMS 114 small cell lung
  TGI: > 100 µM
DLD-1 colon
  TGI: > 100 µM
U251 CNS
  TGI: > 100 µM

## CCOC(=O)C(C)(C)Oc1ccc2c(-c3ccc(Cl)cc3)c(-c3ccc(Cl)cc3)c(=O)oc2c1
NCI-H460 lung
  TGI: > 100 µM
RXF 393 renal
  TGI: > 100 µM
K-562 leukemia
  TGI: > 100 µM
A549 NSCLC
  TGI: > 100 µM
DMS 114 small cell lung
  TGI: > 100 µM
DLD-1 colon
  TGI: > 100 µM
U251 CNS
  TGI: > 100 µM

## Cc1c(-c2nnc(-c3ccccc3)o2)c(=O)n(-c2ccccc2)n1C
NCI-H460 lung
  TGI: > 100 µM
RXF 393 renal
  TGI: > 100 µM
K-562 leukemia
  TGI: > 100 µM
A549 NSCLC
  TGI: > 100 µM
DMS 114 small cell lung
  TGI: > 100 µM
DLD-1 colon
  TGI: > 100 µM
U251 CNS
  TGI: > 100 µM
